Experiment [1] addresses T1, MAGL (Mus musculus, UniProt O35678).
T1 construct: Proteomes (mouse brain membrane fraction or cell lysates); from tissue; host or cells: mouse brain membrane fraction (or unspecified cell lysates)
T1 sequence (O35678 1-303): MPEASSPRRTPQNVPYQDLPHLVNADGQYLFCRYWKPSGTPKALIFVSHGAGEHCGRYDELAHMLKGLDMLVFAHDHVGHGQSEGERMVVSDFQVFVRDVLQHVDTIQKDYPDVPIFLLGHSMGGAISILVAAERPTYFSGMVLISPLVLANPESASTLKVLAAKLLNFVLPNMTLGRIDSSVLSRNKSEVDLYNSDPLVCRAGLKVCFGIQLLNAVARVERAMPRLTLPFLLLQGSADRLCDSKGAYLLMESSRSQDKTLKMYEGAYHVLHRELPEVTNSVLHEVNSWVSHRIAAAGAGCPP
Put plainly: Mouse brain proteomes from inhibitor treated mice, MAGL. Format: in vivo. As to conditions: 5 mg/kg oral gavage, C57Bl/6J mice, brain proteome 4 h after administration. The method, then: (§1) Preparation of Mouse Brain Proteomes from Inhibitor Treated Mice.
(§2) Inhibitors were administered to wild-type C57Bl/6J by oral gavage in a vehicle of polyethylene glycol.

Experiment [2] concerns the target T2, FAAH (Mus musculus, UniProt O08914).
T2 construct: Proteomes (mouse brain membrane fraction or cell lysates); from tissue; host or cells: mouse brain membrane fraction (or unspecified cell lysates)
T2 sequence (O08914 1-579): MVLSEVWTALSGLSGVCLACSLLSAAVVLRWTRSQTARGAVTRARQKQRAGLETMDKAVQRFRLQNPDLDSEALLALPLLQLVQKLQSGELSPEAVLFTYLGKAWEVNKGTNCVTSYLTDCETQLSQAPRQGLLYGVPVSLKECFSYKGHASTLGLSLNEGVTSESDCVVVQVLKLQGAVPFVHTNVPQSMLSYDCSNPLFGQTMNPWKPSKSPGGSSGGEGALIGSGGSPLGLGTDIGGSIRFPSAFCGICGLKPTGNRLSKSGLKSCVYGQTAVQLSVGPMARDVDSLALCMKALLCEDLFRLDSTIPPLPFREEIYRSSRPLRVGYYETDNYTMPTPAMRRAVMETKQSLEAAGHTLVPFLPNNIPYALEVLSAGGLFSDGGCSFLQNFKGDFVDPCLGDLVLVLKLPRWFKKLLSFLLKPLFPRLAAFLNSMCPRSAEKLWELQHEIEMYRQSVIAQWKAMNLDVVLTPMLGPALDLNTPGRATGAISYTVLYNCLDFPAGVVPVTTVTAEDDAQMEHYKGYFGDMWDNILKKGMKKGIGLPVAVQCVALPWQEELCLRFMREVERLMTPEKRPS
Put plainly: Mouse brain proteomes from inhibitor treated mice, FAAH. The format is in vivo. As to conditions: 5 mg/kg oral gavage, C57Bl/6J mice, brain proteome 4 h after administration. On the procedure: as §1
Inhibitors were administered to wild-type C57Bl/6J by oral gavage in a vehicle of polyethylene glycol. Each animal was sacrificed 4 h following administration and brain proteomes were prepared and analyzed according to previously established methods (See Niphakis, M. J., et al. (2011) ACS Chem. Neurosci. and Long, J. Z., et al. Nat. Chem. Biol. 5:37-44)

The target of experiment [3] is T1, MAGL. Description: In vitro competitive activity-based protein profiling (mouse), MAGL. Format: biochemical. As to conditions: for IC50: mouse brain membrane fraction or cell lysates, 30 min preincubation at 37° C, FP-Rh probe; for inhibition at 1 µM: mouse proteome, in vitro, read-out: % Inhibition at 1 μM MAGL. The method, then:
(§3) In Vitro Competitive Activity-Based Protein Profiling (Mouse).
(§4) Proteomes (mouse brain membrane fraction or cell lysates) (50 μL, 1.0 mg/mL total protein concentration) were preincubated with varying concentrations of inhibitors at 37° C. After 30 min, FP-Rh (1.0 μL, 50 μM in DMSO) was added and the mixture was incubated for another 30 min at 37° C. Reactions were quenched with SDS loading buffer (50 μL-4×) and run on SDS-PAGE.

In experiment [4] the target is T3, ABHD6 (Mus musculus, UniProt Q8R2Y0).
T3 construct: Proteomes (mouse brain membrane fraction or cell lysates); from tissue; host or cells: mouse brain membrane fraction (or unspecified cell lysates)
T3 sequence (Q8R2Y0 1-336): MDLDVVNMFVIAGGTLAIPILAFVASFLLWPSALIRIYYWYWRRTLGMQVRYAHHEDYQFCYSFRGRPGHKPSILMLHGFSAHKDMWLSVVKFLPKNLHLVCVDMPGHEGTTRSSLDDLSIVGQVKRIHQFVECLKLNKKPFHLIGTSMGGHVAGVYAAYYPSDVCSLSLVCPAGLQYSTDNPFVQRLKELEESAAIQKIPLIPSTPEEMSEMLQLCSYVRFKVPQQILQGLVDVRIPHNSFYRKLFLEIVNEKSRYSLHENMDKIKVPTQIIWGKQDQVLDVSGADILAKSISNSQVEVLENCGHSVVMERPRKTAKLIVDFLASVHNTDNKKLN
Put plainly: Mouse brain proteomes from inhibitor treated mice, ABHD6. Format: in vivo. As to conditions: 5 mg/kg oral gavage, C57Bl/6J mice, brain proteome 4 h after administration. The method, then:
as §1, §2

The target of experiment [5] is T3, ABHD6. Description: In vitro competitive activity-based protein profiling (mouse), ABHD6. The format is biochemical. As to conditions: for IC50: mouse brain membrane fraction or cell lysates, 30 min preincubation at 37° C, FP-Rh probe; for inhibition at 1 µM: mouse proteome, in vitro, read-out: % Inhibition at 1 μM ABHD6. On the procedure: as §3, §4
For experiment [6], the target named is T2, FAAH. Description: In vitro competitive activity-based protein profiling (mouse), FAAH. As to conditions: for IC50: mouse brain membrane fraction or cell lysates, 30 min preincubation at 37° C, FP-Rh probe; for inhibition at 1 µM: mouse proteome, in vitro. The format is biochemical. An outline of the steps: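 Competitive ABPP: inhibitor exposure (30 min, 37° C) of mouse brain membrane or lysate proteome at 1.0 mg/mL, then labelling with FP-Rh for another 30 min. Activity quantified by in-gel fluorescence of FAAH bands after SDS-PAGE.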

These results are taken from patent US9771341B2, “Piperazine carbamates and methods of making and using same” (Abide Therapeutics, Inc., priority 2015, dated 2017).

Consider `C#CCO[C@H]1CCN(c2cc(Cl)ccc2CN2CCN(C(=O)OC(C(F)(F)F)C(F)(F)F)CC2)C1` [Example 3, 1,1,1,3,3,3-hexafluoropropan-2-yl (S)-4-(4-chloro-2-(3-(prop-2-yn-1-yloxy)pyrrolidin-1-yl)benzyl)piperazine-1-carboxylate], for which the inhibition at 5 mg/kg against MAGL [1] was more than 75%; on FAAH [2] it was less than 25%; against ABHD6 [4] it was less than 25%. Besides, the IC50 at MAGL [3] was less than 100 nM; at ABHD6 [5], more than 1000 nM; on FAAH [6] it was more than 1000 nM.
For `O=C(OC(C(F)(F)F)C(F)(F)F)N1CCN(Cc2ccc(Cl)cc2N2CC[C@H](CF)C2)CC1` [Example 4, 1,1,1,3,3,3-hexafluoropropan-2-yl (S)-4-(4-chloro-2-(3-(fluoromethyl)pyrrolidin-1-yl)benzyl)piperazine-1-carboxylate], the inhibition at 5 mg/kg against MAGL [1] was more than 75%; on FAAH [2], less than 25%; against ABHD6 [4], less than 25%. Also, the inhibition at 1 µM at MAGL [3] is more than 75%; on ABHD6 [5] it was less than 25%; on FAAH [6], less than 25%. For the same molecule, the figures for the IC50 at MAGL [3], at ABHD6 [5] and at FAAH [6] were less than 100 nM, more than 1000 nM and more than 1000 nM, respectively.
Take `COc1c(CN2CCN(C(=O)OC(C(F)(F)F)C(F)(F)F)CC2)cccc1CN1CCC(F)(F)CC1` [Example 16, 1,1,1,3,3,3-hexafluoropropan-2-yl 4-(3-((4,4-difluoropiperidin-1-yl)methyl)-2-methoxybenzyl)piperazine-1-carboxylate]: the inhibition at 5 mg/kg against MAGL [1] is more than 75%; on FAAH [2], less than 25%; at ABHD6 [4] it was 25 to 75%. Further, the inhibition at 1 µM was more than 75% at MAGL [3], more than 75% at ABHD6 [5] and less than 25% at FAAH [6]. Further, the half-maximal inhibitory concentration (IC50) at MAGL [3] was less than 100 nM; on ABHD6 [5], 100 to 1000 nM; at FAAH [6] it was more than 1000 nM.
On to `O=C(OC(C(F)(F)F)C(F)(F)F)N1CCN(Cc2ccc(CN3CCOCC3)cc2OC(F)(F)F)CC1` [Example 23, 1,1,1,3,3,3-hexafluoropropan-2-yl 4-(4-(morpholinomethyl)-2-(trifluoromethoxy)benzyl)piperazine-1-carboxylate], for which the inhibition at 5 mg/kg was more than 75% at MAGL [1], less than 25% against FAAH [2] and less than 25% against ABHD6 [4]. Moreover, the results for the inhibition at 1 µM on MAGL [3], at ABHD6 [5] and on FAAH [6] were more than 75%, less than 25% and less than 25%, respectively. Moreover, the IC50 at MAGL [3] was less than 100 nM; at ABHD6 [5], more than 1000 nM; on FAAH [6], more than 1000 nM.
As to `O=C(OC(C(F)(F)F)C(F)(F)F)N1CCN(Cc2ccc(C(F)(F)F)c(N3CC4CCC(C3)O4)c2)CC1` [Example 26, 1,1,1,3,3,3-hexafluoropropan-2-yl 4-(3-(8-oxa-3-azabicyclo[3.2.1]octan-3-yl)-4-(trifluoromethyl)benzyl)piperazine-1-carboxylate], the inhibition at 5 mg/kg against MAGL [1] was more than 75%; against FAAH [2] it was less than 25%; against ABHD6 [4], more than 75%. Further, the inhibition at 1 µM on MAGL [3] is more than 75%; at ABHD6 [5], more than 75%; at FAAH [6] it was less than 25%. For the same molecule, the IC50 at MAGL [3] was less than 100 nM; at ABHD6 [5], 100 to 1000 nM; on FAAH [6] it was more than 1000 nM.
At FAAH [2], `O=C(OC(C(F)(F)F)C(F)(F)F)N1CCN(Cc2ccc(Cl)cc2N2CC3CCC(C2)O3)CC1` [Example 30, 1,1,1,3,3,3-hexafluoropropan-2-yl 4-(2-(8-oxa-3-azabicyclo[3.2.1]octan-3-yl)-4-chlorobenzyl)piperazine-1-carboxylate] displayed an inhibition at 5 mg/kg of less than 25%. The same molecule showed a half-inhibitory concentration (IC50) at FAAH [6] of more than 1000 nM.
As to `O=C(OC(C(F)(F)F)C(F)(F)F)N1CCN(Cc2cccc(OC(F)(F)F)c2N2CC3CCC(C2)O3)CC1` [Example 31, 1,1,1,3,3,3-hexafluoropropan-2-yl 4-(2-(8-oxa-3-azabicyclo[3.2.1]octan-3-yl)-3-(trifluoromethoxy)benzyl)piperazine-1-carboxylate], the inhibition at 5 mg/kg is 25 to 75% on MAGL [1], less than 25% against FAAH [2] and less than 25% on ABHD6 [4]. Moreover, the figures for the inhibition at 1 µM on MAGL [3], at ABHD6 [5] and at FAAH [6] were more than 75%, less than 25% and less than 25%, respectively. In addition, the half-maximal inhibitory concentration (IC50) at MAGL [3] was less than 100 nM; on ABHD6 [5], more than 1000 nM; at FAAH [6], more than 1000 nM.
For the molecule `O=C(OC(C(F)(F)F)C(F)(F)F)N1CCN(Cc2cccc(OC(F)(F)F)c2N2CCC(N3CCCC3)CC2)CC1` [Example 32, 1,1,1,3,3,3-hexafluoropropan-2-yl 4-(2-(4-(pyrrolidin-1-yl)piperidin-1-yl)-3-(trifluoromethoxy)benzyl)piperazine-1-carboxylate], the inhibition at 5 mg/kg against MAGL [1], against FAAH [2] and against ABHD6 [4] was less than 25% in each case. For the same molecule, the inhibition at 1 µM was more than 75% on MAGL [3], less than 25% at ABHD6 [5] and less than 25% at FAAH [6]. Moreover, the half-maximal inhibitory concentration (IC50) was less than 100 nM on MAGL [3], more than 1000 nM at ABHD6 [5] and more than 1000 nM on FAAH [6].
`NC(=O)C1CCN(c2cc(Cl)ccc2CN2CCN(C(=O)OC(C(F)(F)F)C(F)(F)F)CC2)CC1` [Example 33, 1,1,1,3,3,3-hexafluoropropan-2-yl 4-(2-(4-carbamoylpiperidin-1-yl)-4-chlorobenzyl)piperazine-1-carboxylate]: the inhibition at 5 mg/kg against MAGL [1] was more than 75%; against FAAH [2], less than 25%; on ABHD6 [4] it was more than 75%. The inhibition at 1 µM on MAGL [3] is more than 75%; on ABHD6 [5], more than 75%; at FAAH [6], less than 25%. Also, the IC50 at MAGL [3] is less than 100 nM; at ABHD6 [5], 100 to 1000 nM; on FAAH [6] it was more than 1000 nM.
Consider `O=C(OC(C(F)(F)F)C(F)(F)F)N1CCN(Cc2ccc(C(F)(F)F)cc2N2C3CCC2COC3)CC1` [Example 58, 1,1,1,3,3,3-hexafluoropropan-2-yl 4-(2-(3-oxa-8-azabicyclo[3.2.1]octan-8-yl)-4-(trifluoromethyl)benzyl)piperazine-1-carboxylate], for which the inhibition at 5 mg/kg against FAAH [2] is less than 25%. In addition, at FAAH [6], the inhibition at 1 µM is less than 25% and the IC50 was more than 1000 nM.
`O=C(OC(C(F)(F)F)C(F)(F)F)N1CCN(Cc2ccc(C(F)(F)F)cc2N2CC3CCC(C2)O3)CC1` [Example 59, 1,1,1,3,3,3-hexafluoropropan-2-yl 4-(2-(8-oxa-3-azabicyclo[3.2.1]octan-3-yl)-4-(trifluoromethyl)benzyl)piperazine-1-carboxylate] came in with an inhibition at 5 mg/kg at FAAH [2] of less than 25%. On FAAH [6], the inhibition at 1 µM is less than 25% and the half-maximal inhibitory concentration (IC50) was more than 1000 nM.
